Here are results for one molecule from publication PMC5127132 (2016).

Assay [1] relates to A08 (DNA, aptamer) AGCCTCGTCTGTTCTCCCGGCAGTGTGGGCGAATCTATGCGTACCGTTCGATATCGTGGGGAAGACAAGCAGACGT
The experiment in a line: gold nanoparticle aggregation. Particulars: 0.5 M NaCl added last; in water; OTA 0.2 to 70 nM.

The test system of assay [2] is 1.12.2 (DNA, aptamer) GATCGGGTGTGGGTGGCGTAAAGGGAGCATCGGACA
The experiment in a line: gold nanoparticle aggregation. The settings on record: 0.5 M NaCl added last; in water; OTA 0.2 to 70 nM.

For assay [3], the system named is H8 (5'-FAM) (DNA, aptamer) GGGAGGACGAAGCGGAACTGGGTGTGGGGTGATCAAGGGAGTAGACTACAGAAGACACGCCCGACA
The experiment in a line: microscale thermophoresis. Particulars: 137 mM NaCl, 2.7 mM KCl, 1 mM MgCl2; 10 mM Na2HPO4, 2 mM KH2PO4, pH 7.4, 25 °C.

Assay [4] deals with A08min (5'-FAM) (DNA, aptamer) GGCAGTGTGGGCGAATCTATGCGTACCGTTCGATATCGTG
The experiment in a line: microscale thermophoresis. Particulars: 137 mM NaCl, 2.7 mM KCl; 10 mM Na2HPO4, 2 mM KH2PO4, pH 7.4, 25 °C. Background: MST reads how a fluorescent partner responds to local heating, with and without ligand.

In assay [5] the test system is H12 (5'-FAM) (DNA, aptamer) GGGAGGACGAAGCGGAACCGGGTGTGGGTGCCTTGATCCAGGGAGTCTCAGAAGACACGCCCGACA
The experiment in a line: microscale thermophoresis. Particulars: 137 mM NaCl, 2.7 mM KCl, 1 mM MgCl2; 10 mM Na2HPO4, 2 mM KH2PO4, pH 7.4, 25 °C.

Assay [6] has as its system 1.12.2 (5'-FAM) (DNA, aptamer) GATCGGGTGTGGGTGGCGTAAAGGGAGCATCGGACA
The experiment in a line: microscale thermophoresis (raw fluorescence, quenching). The settings on record: 120 mM NaCl, 5 mM KCl, 10 mM CaCl2; 10 mM HEPES, pH 7.0, 25 °C; raw fluorescence quenching analysed, may have skewed KD.

The test system of assay [7] is A08min (DNA, aptamer) GGCAGTGTGGGCGAATCTATGCGTACCGTTCGATATCGTG
The experiment in a line: gold nanoparticle aggregation. Particulars: 0.5 M NaCl added last; in water; OTA 0.2 to 70 nM.

Assay [8] relates to A08 (5'-FAM) (DNA, aptamer) AGCCTCGTCTGTTCTCCCGGCAGTGTGGGCGAATCTATGCGTACCGTTCGATATCGTGGGGAAGACAAGCAGACGT
The experiment in a line: microscale thermophoresis. Particulars: 137 mM NaCl, 2.7 mM KCl; 10 mM Na2HPO4, 2 mM KH2PO4, pH 7.4, 25 °C.

Assay [9] concerns A08min (DNA, aptamer) GGCAGTGTGGGCGAATCTATGCGTACCGTTCGATATCGTG
The experiment in a line: SYBR Green I displacement. Particulars: 137 mM NaCl, 2.7 mM KCl; 10 mM Na2HPO4, 2 mM KH2PO4, pH 7.4; OTA 0.2 to 70 nM.

The test system of assay [10] is A08 (DNA, aptamer) AGCCTCGTCTGTTCTCCCGGCAGTGTGGGCGAATCTATGCGTACCGTTCGATATCGTGGGGAAGACAAGCAGACGT
The experiment in a line: SYBR Green I displacement. The settings on record: 137 mM NaCl, 2.7 mM KCl; 10 mM Na2HPO4, 2 mM KH2PO4, pH 7.4; OTA 0.2 to 70 nM.

For assay [11], the system named is 1.12.2 (DNA, aptamer) GATCGGGTGTGGGTGGCGTAAAGGGAGCATCGGACA
The experiment in a line: SYBR Green I displacement. The settings on record: 120 mM NaCl, 5 mM KCl, 10 mM CaCl2; 10 mM HEPES, pH 7.0; OTA 0.2 to 70 nM.

Regarding `C[C@@H]1Cc2c(Cl)cc(C(=O)N[C@@H](Cc3ccccc3)C(=O)O)c(O)c2C(=O)O1`, the binding entry in assay [1], in assay [2], in assay [7], in [9], in [10] and in [11] was “yes” each time. In addition, the KD in [3] came to 416.1 ± 119.0 nM; in [4], 96.5 ± 33.3 nM; in assay [5], 629.5 ± 79.7 nM; in assay [6], 524.8 ± 147.8 nM; in [8] it was 232.6 ± 80.6 nM.

For orientation: KD means the constant that tells how readily two partners part at equilibrium. The low end stands for a tighter complex, the high end for a looser complex.
